Measured values published in US9119805B2, “Therapy and prevention of problem drinking” (THE UNIVERSITY OF SYDNEY, priority 2009, dated 2015).
“Also recorded” adds a separate entry of the source.

Assays:
P rats = experiment: Lickometer choice of Vodka Cruiser versus 3% sucrose after acute oxytocin in alcohol-exposed P rats (Example 1); type: in vivo, rat
Text: P rats (8 female and 8 male P rats) were provided by Professor Andrew Lawrence at the Howard Florey Institute, Melbourne, Australia. The animals were of adolescent age (i.e., 28 days-old) on arrival at the animal house. Animals were housed in same-sex cages at a density of 3-4 rats per cage. Over the following 2 months, animals received intermittent exposure to various alcoholic beverages in their home cages e.g., white wine, red wine, beer, Vodka Cruiser, Bacardi Breezer, but were alcohol-free for the month preceding testing.
Testing occurred in a lickometer apparatus. Rats were placed in a small metal cage where they have a choice of two tubes for supply of liquids, wherein the tube were designed such that every third lick at one tube delivered a small drop (0.07 ml) of 3% (w/v) sucrose solution, and every third lick at the other tube delivered a small amount of alcohol-containing beverage, in particular Vodka Cruiser (Raspberry Flavor), containing 5.0% (w/v) ethanol. Rats were exposed daily to 70 min sessions in the lickometer until their intake of sucrose and/or alcohol and preferences for these beverages had stabilized.
One-half of the rats being tested were injected intra-peritoneally (I/P) with a single dosage of 0.3 mg/kg oxytocin, administered 10 min before their daily drinking session. The following day, these animals received a normal baseline test session with no further oxytocin dosing. The following day, one-half of the animals were administered I/P with 1 mg/kg oxytocin 10 min before the test session. Normal drinking sessions then continued for a further 4 days. During the same period, the other one-half of the rats were administered a placebo (vehicle) lacking oxytocin. Animals receiving the placebo were treated with oxytocin in exactly the same sequence as the treatment group, commencing one week after the start of testing. A final test to determine alcohol intake and alcohol preference was conducted after 55 days, to determine whether or not oxytocin induced lasting changes in drinking behavior.

[1] = test system: alcohol-dependent adults and non-dependent problem drinkers; experiment: Human Study 2: intranasal oxytocin, alcohol self-administration; type: in vivo; conditions: versus placebo
Method: In a second clinical study in humans, the effect(s) of intranasal oxytocin therapy on alcohol self-administration are determined in a population of alcohol-dependent adults and in a population of non-dependent problem drinkers.
At least forty male and female adults are recruited from the community to the Brain and Mind Research Institute (BMRI) to participate in a laboratory based investigation looking at the impact of oxytocin on alcohol craving. Participants have a current diagnosis of alcohol dependence according to the Diagnostic and Statistical Manual of Mental Disorders, Fourth Edition (DSM-IV) as determined by the Structured Clinical Interview for the DSM-IV (SCID-IV) or are non-dependent subjects scoring higher than 8 on AUDIT. Male and female participants are chronic hazardous drinkers consuming more than 20 (females) or 25 (males) standard drinks per week (i.e., females: more than 200 g alcohol per week; males more than 250 g alcohol per week), respectively, and have not been abstinent more than 3 days per week in the 30 days preceding commencement of the trial as determined by AUDIT.
All subjects are tested for baseline SCID-IV, AUDIT, PDQ, 90-day TLFB, DASS-21, PANAS, AUQ, FTND, urine toxicology, plasma oxytocin and cortisol, liver function testing, heart rate (HR), blood pressure (BP), and ECG, and females are pregnancy-tested and their menstrual cycles determined, as described herein above for Study 2. Neuropsychological evaluations are also performed e.g., according to CANTAB. Additionally, subjects are subjected to attention bias assessment task testing, wherein attention biases to alcohol-related cues are determined using e.g., stroop and dot-probe methodology. Subjects also participate in a reward learning computer task, to assess motivation for their alcohol consumption. Based on their test results, subjects are selected for recruitment in the study.
Recruited subjects are administered placebo or oxytocin intranasally (80 IU per day: 40 IU at 9:00 am and 40 IU at 9:00 pm) over a period of 7 days, following completion of baseline measurements. Subjects are instructed on self-administration procedures. Drug administration commences on the evening of the day of the clinical and medical interview and ceases on a morning one-week later, after 14 doses have been administered. Subjects are randomized to oxytocin-receiving or placebo-receiving groups, and the groups are stratified according to gender, age, and drinking behavior. Subjects are contacted by telephone daily to confirm medication compliance and determine adverse events.
Subjects returning to the BMRI on the afternoon of the final day of testing are evaluated. Bloods for plasma oxytocin and cortisol levels are collected before commencement. A urine toxicology test and alcohol breathalyzer test are also performed, to determine whether subjects have been alcohol-free and drug-free at the time of testing. Subjects are tested according to DASS-21, PANAS, 7-day TLFB, and AUQ, and neuropsychological evaluations e.g., according to CANTAB are performed. Changes in mood, drinking behavior and neuropsychology are evaluated for both groups by comparison with baseline evaluations. Changes in smoking behavior are evaluated by FTND testing and comparison with baseline evaluations. HR and BP records over the period and at cessation are also determined and compared to baseline levels before commencement of therapy. […]

[2] = acute oxytocin 0.3 and 1 mg/kg I/P, 10 min before 70 min session

CC[C@H](C)[C@@H]1NC(=O)[C@H](Cc2ccc(O)cc2)NC(=O)[C@@H](N)CSSC[C@@H](C(=O)N2CCC[C@H]2C(=O)N[C@@H](CC(C)C)C(=O)NCC(N)=O)NC(=O)[C@H](CC(N)=O)NC(=O)[C@H](CCC(N)=O)NC1=O [oxytocin]
duration of the reduction in alcohol preference and alcohol intake (P rats; P rats, after 1 mg/kg oxytocin): 7-8 weeks | intake of Vodka Cruiser (alcohol consumption) (P rats; [2]): significant reduction; also recorded: reduced their alcohol consumption significantly | intake of sucrose solution (P rats; [2]): significant reduction | time intake of the alcoholic beverage remained suppressed (P rats; following oxytocin): at least 55 days | reduction of baseline alcohol intake (P rats; male and female P rats, 2 days following treatment, FIG. 1): about 50% | reduction in alcohol consumption, comparison between the sexes (P rats; male versus female P rats): comparable between the sexes | preference for alcohol (Vodka Cruiser versus 3% sucrose) (P rats; treated male and female P rats): shift towards a preference for alcohol-free solution; also recorded: reduced preference for alcohol | alcohol consumed ([1]; ad libitum drinking sessions): consume less alcohol | bias to alcohol-related cues [1]: lower bias | positive response to the alcohol primer [1]: lower levels of positive response | reward motivation for alcohol consumption [1]: reduced reward motivation | subjective craving for alcohol [1]: lower
